Reference: publication PMC12736255, “Reinvestigating Pyrrol-2-One-Based Compounds: From Antimicrobial Agents to Promising Antitumor Candidates” (Pharmaceuticals, 2025)

Columns and labels:
[1] = system: Gram-positive and Gram-negative bacteria; design: method as in PMID 38398524; settings: cited from earlier work
BT-549 = experiment: NCI-60 5-dose screen; assay type: cell-based, human
CAKI-1 = experiment: NCI-60 5-dose screen; assay type: cell-based, human
CCRF-CEM = experiment: NCI-60 5-dose screen; assay type: cell-based; settings: Homo sapiens
T-47D = experiment: NCI-60 5-dose screen; assay type: cell-based, human
SR = experiment: NCI-60 5-dose screen; assay type: cell-based, human
U-118MG = experiment: CellTiter-Glo 2.0 cytotoxicity, glioblastoma; assay type: cell-based, human; settings: 50 µM, 24 h
Procedure: (§1) Cytotoxicity of compounds was assessed using the CellTiter-Glo® 2.0 Assay (Promega, Madison, WI, USA) on human gingival fibroblasts (HGF), osteosarcoma (HOS and MG-63) and glioblastoma (LN-229 and U-118MG) cells, according to the manufacturer’s instructions. HGF, HOS, MG-63 and U-118MG cells were purchased from Cytion GmbH, Eppelheim, Germany, and LN-229 (CRL-2611) from the American Type Culture Collection (ATCC), Manassas, VA, USA. Cells were seeded (50,000 cells/mL—HGF, 100,000 cells/mL—tumor cells) into 96-well opaque white tissue culture-treated plates and allowed to adhere overnight in αMEM medium with 10% fetal bovine serum and 1% antibiotic-antimycotic (all from PAN—Biotech GmbH, Aidenbach, Germany). Cells were incubated with compounds (10 or 50 µM) for 24 h, then CellTiter-Glo® reagent was added and luminescence was recorded using a FLUOstar® Omega microplate reader (BMG LABTECH, Ortenberg, Germany). The experiments were carried out in triplicate, and the viability of treated cells was expressed as a percentage of the viability of control cells (untreated). Data were represented as means ± standard deviations. Stock solutions of compounds were prepared in DMSO, then diluted in complete cell culture media. […] Data were analyzed with independent two-tailed (Student’s) t-test, considering p < 0.05 statistically significant.

LN-229 = experiment: CellTiter-Glo 2.0 cytotoxicity, glioblastoma; assay type: cell-based, human; settings: LN-229, 24 h
Procedure: as §1

NCI-H226 = experiment: NCI-60 5-dose screen; assay type: cell-based, human
M14 = experiment: NCI-60 5-dose screen; assay type: cell-based, human
A498 = experiment: NCI-60 5-dose screen; assay type: cell-based, human
MALME-3M = experiment: NCI-60 5-dose screen; assay type: cell-based, human
HCT-116 = experiment: NCI-60 5-dose screen; assay type: cell-based, human
OVCAR-3 = experiment: NCI-60 5-dose screen; assay type: cell-based, human
LOX IMVI = experiment: NCI-60 5-dose screen; assay type: cell-based, human
SNB-75 = experiment: NCI-60 5-dose screen; assay type: cell-based, human
[2] = system: osteosarcoma (HOS and MG-63) cells; experiment: CellTiter-Glo 2.0 cytotoxicity, osteosarcoma; assay type: cell-based, human; settings: osteosarcoma cell lines, 10 and 50 µM, 24 h
Procedure: as §1

SF-268 = experiment: NCI-60 5-dose screen; assay type: cell-based, human
SK-OV-3 = experiment: NCI-60 5-dose screen; assay type: cell-based, human
MOLT-4 = experiment: NCI-60 5-dose screen; assay type: cell-based, human
OVCAR-4 = experiment: NCI-60 5-dose screen; assay type: cell-based, human
HOP-62 = experiment: NCI-60 5-dose screen; assay type: cell-based, human
U251 = experiment: NCI-60 5-dose screen; assay type: cell-based, human
HT29 = experiment: NCI-60 5-dose screen; assay type: cell-based, human
SW-620 = experiment: NCI-60 5-dose screen; assay type: cell-based, human
[3] = system: human gingival fibroblasts (HGF); experiment: CellTiter-Glo 2.0 cytotoxicity, normal fibroblasts; assay type: cell-based; settings: 50 µM, 24 h
Procedure: as §1

fungal strains = system: fungal strains; design: method as in PMID 38398524; settings: cited from earlier work
[4] = Homo sapiens, read-out: LC50 (the source's name)

SMILES: O=C1C(Nc2ccc(I)cc2)=CC(c2ccc3c(c2)OCO3)N1c1ccc(I)cc1 (stereo not drawn) [3n]
- antibacterial activity (in words) [1]: highest antibacterial activity

SMILES: O=C1C(Nc2ccc(I)cc2)=CC(c2ccc(O)c(O)c2)N1c1ccc(I)cc1 (stereo not drawn) [3h]
- TGI (BT-549): >100 µM
- GI50 (BT-549; Homo sapiens): > 100 µM
- CC50 (BT-549; [4]): > 100 µM
- TGI (CAKI-1): >100 µM
- GI50 (CAKI-1; Homo sapiens): > 100 µM
- CC50 (CAKI-1; [4]): > 100 µM
- GI50 (CCRF-CEM): 3.09 µM
- CC50 (CCRF-CEM; read-out: LC50 (the source's name)): 3.61 µM
- TGI (T-47D): >100 µM
- GI50 (T-47D; Homo sapiens, T47D): 2.41 µM
- CC50 (T-47D; Homo sapiens, T47D, read-out: LC50 (the source's name)): > 100 µM
- TGI (SR): 2.99 µM
- GI50 (SR; Homo sapiens): 1.55 µM
- CC50 (SR; [4]): 5.75 µM
- cytotoxicity (activity in words) (U-118MG): moderate activity
- cytotoxicity (activity in words) (LN-229): ineffective
- TGI (NCI-H226): >100 µM
- GI50 (NCI-H226; Homo sapiens): > 100 µM
- CC50 (NCI-H226; [4]): > 100 µM
- TGI (M14): >100 µM
- GI50 (M14; Homo sapiens): 5.34 µM
- CC50 (M14; [4]): > 100 µM
- TGI (A498): >100 µM
- GI50 (A498; Homo sapiens): > 100 µM
- CC50 (A498; [4]): > 100 µM
- GI50 (MALME-3M; Homo sapiens, Malme-3M): 2.68 µM
- CC50 (MALME-3M; Homo sapiens, Malme-3M, read-out: LC50 (the source's name)): > 100 µM
- TGI (MALME-3M; MALME-3M): >100 µM
- TGI (HCT-116): >100 µM
- GI50 (HCT-116; Homo sapiens): 7.43 µM
- CC50 (HCT-116; [4]): > 100 µM
- TGI (OVCAR-3): >100 µM
- GI50 (OVCAR-3; Homo sapiens): 9.16 µM
- CC50 (OVCAR-3; [4]): > 100 µM
- TGI (LOX IMVI): >100 µM
- GI50 (LOX IMVI; Homo sapiens): > 100 µM
- CC50 (LOX IMVI; [4]): > 100 µM
- TGI (SNB-75): >100 µM
- GI50 (SNB-75; Homo sapiens): > 100 µM
- CC50 (SNB-75; [4]): > 100 µM
- cytotoxicity (activity in words) [2]: notable activity
- TGI (SF-268): >100 µM
- GI50 (SF-268; Homo sapiens): 6.04 µM
- CC50 (SF-268; [4]): > 100 µM
- TGI (SK-OV-3): >100 µM
- GI50 (SK-OV-3; Homo sapiens): 7.6 µM
- CC50 (SK-OV-3; [4]): > 100 µM
- TGI (MOLT-4): 4.17 µM
- GI50 (MOLT-4; Homo sapiens): 2.08 µM
- CC50 (MOLT-4; [4]): 8.35 µM
- TGI (OVCAR-4): >100 µM
- GI50 (OVCAR-4; Homo sapiens): 3.27 µM
- CC50 (OVCAR-4; [4]): > 100 µM
- TGI (HOP-62): >100 µM
- GI50 (HOP-62; Homo sapiens): > 100 µM
- CC50 (HOP-62; [4]): > 100 µM
- TGI (U251): >100 µM
- GI50 (U251; Homo sapiens, U-251): > 100 µM
- LC50 (50% lethal concentration) (U251; Homo sapiens, U-251): > 100 µM
- TGI (HT29): >100 µM
- GI50 (HT29; Homo sapiens, HT-29): 8.8 µM
- CC50 (HT29; Homo sapiens, HT-29, read-out: LC50 (the source's name)): > 100 µM
- TGI (SW-620): >100 µM
- GI50 (SW-620; Homo sapiens): > 100 µM
- CC50 (SW-620; [4]): > 100 µM
- cytotoxicity (activity in words) [3]: acute cytotoxicity

SMILES: O=C1C(Nc2ccc(I)cc2)=CC(c2ccc(O)cc2)N1c1ccc(I)cc1 (stereo not drawn) [3g]
- antibacterial activity (in words) [1]: highest antibacterial activity
- cytotoxicity (activity in words) (U-118MG): moderate activity
- cytotoxicity (activity in words) (LN-229): ineffective
- cytotoxicity (activity in words) [2]: notable activity

SMILES: COc1ccccc1C1C=C(Nc2ccc(I)cc2)C(=O)N1c1ccc(I)cc1 (stereo not drawn) [3i]
- antifungal activity (in words) (fungal strains): most effective against fungal strains
